Data set [1] can be described thus: SAF Mannan loading of different terpenes and terpene mixtures. Format: physicochemical. The conditions noted are these: for Free Terpene: SAF Mannan 500 μl (250 mg/ml), overnight, room temperature; for Vol. loaded (maximal terpene loading in SAF Mannan): approximate maximal loading, volume of terpene emulsion absorbed by SAF Mannan; for % Loaded w/w (maximal terpene loading in SAF Mannan): ratio of amount of terpene loaded to amount of particle present (weight for weight); for Free Terpene: phase inversion remark: SAF Mannan 500 μl, second line of the Free Terpene cell. The arrangement: key to Free Terpene: +: “free terpene” refers to the visible presence of terpene in the centrifuged reaction mixture; −: The absence of free terpene indicates complete absorption of the terpene by the particles; key to Free Terpene: phase inversion remark: Inverted = Phase Inverted - solids floating on top - no free oil; W = white; Y = yellow. As for the experimental part: (§1) Increasing volumes of terpene emulsion were mixed with 250 mg/ml Baker's YP or 250 mg/ml SAF Mannan™ overnight at room temperature as shown in Tables 27 and 28. Samples were centrifuged at 14,000×g for 10 minutes and the appearance of free terpene floating on the aqueous layer was scored. The highest volume of terpene emulsion absorbed by Baker's YP or SAF Mannan™ as evidenced by the absence of free terpene was recorded as the volume of absorbed terpene emulsion. Colour of encapsulated terpenes in the pellet was recorded.
(§2) Percentage loaded represents a ratio of the amount of terpene loaded to the amount of particle present (weight for weight).

The nature of data set [2]: Baker's YP loading of different terpenes and terpene mixtures. The following applies: for Free Terpene: Baker's YP 250 mg/ml 500 μl; for Vol. Loaded μl: approximate maximal terpene loading in Baker's YP; for % Loaded w/w: maximal loading in Baker's YP, ratio of terpene loaded to particle present, weight for weight. Format: physicochemical. The arrangement: key to Free Terpene: +: “free terpene” refers to the visible presence of terpene in the centrifuged reaction mixture; −: The absence of free terpene indicates complete absorption of the terpene by the particles. The method, then: as §1, §2

A short description of data set [3]: Terpene stability: yellow colored oxidation product (colour of encapsulated terpene pellet). Format: physicochemical. The arrangement: key to Colour: W = white; Y = yellow; sl = slight; int = intermediate. As for the experimental part: Loading reactions were set up as shown in Table 25 and left to incubate overnight. Samples were centrifuged at 14,000×g for 10 minutes and the appearance of free terpene floating on the aqueous layer and the color of the encapsulated terpenes in the pellet was scored. The highest volume of terpene absorbed by particles as evidenced by the absence of free terpene was recorded as the volume of absorbed terpene emulsion. The reactions were incubated for 1, 3, 6, 9 and 24 hours at room temperature or 37° C. After incubation samples were centrifuged at 14,000×g for 10 minutes and the appearance of free terpene floating on the aqueous layer was scored. The highest volume of terpene absorbed by the particles as evidenced by the absence of free terpene was recorded as the volume of absorbed terpene emulsion. Colour of the encapsulated pellet was scored at 24 hours. Increasing volumes of terpene emulsion were mixed with 250 mg/ml Baker's YP or 250 mg/ml SAF Mannan™ overnight at room temperature as shown in Tables 27 and 28. Samples were centrifuged at 14,000×g for 10 minutes and the appearance of free terpene floating on the aqueous layer was scored. The highest volume of terpene emulsion absorbed by Baker's YP or SAF Mannan™ as evidenced by the absence of free terpene was recorded as the volume of absorbed terpene emulsion. Colour of encapsulated terpenes in the pellet was recorded.

The nature of data set [4]: Solution levels of terpenes in water (true solution by shear blending). Format: physicochemical. The following applies: maximum level solubilized in water by solution-forming shear blending.
The test system of another data set is root-knot nematodes. The data set is described as follows: Nematicidal activity of high purity versus low purity citral. Format: in vivo, root-knot nematode. The conditions noted are these: average of four replicates. The method, then:
Compositions of regular and technical ciral at 250 and 125 ppm were produced in 1% Tween 80 and incubated with root-knot nematodes a in the same way as previously described. Observations of the kill rate (percentage dead) were made at 21 and 42 hours.
The results are shown below in Table 13 and are the average of four replicates.

Where [5] appears, read: terpene emulsion vol 15, 1% Tween-80 485 μl.
The mark [6] stands for this setting: terpene emulsion vol 37.5, 1% Tween-80 462.5 μl.
The mark [7] stands for this setting: terpene emulsion vol 75, 1% Tween-80 425 μl.
Where [8] appears, read: terpene emulsion vol 150, 1% Tween-80 350 μl.
[9] abbreviates: terpene emulsion vol 225, 1% Tween-80 275 μl.
Where [10] appears, read: terpene emulsion vol 450, 1% Tween-80 50 μl.
Setting [11] is: emulsion 15 μl, 1% Tween-80 485 μl.
Setting [12] is: emulsion 37.5 μl, 1% Tween-80 462.5 μl.
The mark [13] stands for this setting: emulsion 75 μl, 1% Tween-80 425 μl.
Setting [14] is: emulsion 150 μl, 1% Tween-80 350 μl.
Where [15] appears, read: emulsion 225 μl, 1% Tween-80 275 μl.
Setting [16] is: emulsion 450 μl, 1% Tween-80 50 μl.
Where [17] appears, read: Table 27, Baker's YP, emulsion 15 μl.
[18] abbreviates: Table 27, Baker's YP, emulsion 37.5 μl.
[19] abbreviates: Table 27, Baker's YP, emulsion 75 μl.
Setting [20] is: Table 27, Baker's YP, emulsion 112.5 μl.
Setting [21] is: Table 27, Baker's YP, emulsion 150 μl.
[22] abbreviates: Table 27, Baker's YP, emulsion 225 μl.
Where [23] appears, read: Table 27, Baker's YP, emulsion 450 μl.
Where [24] appears, read: colour of encapsulated terpene in pellet, SAF Mannan 500 μl, terpene emulsion vol 15.
[25] abbreviates: colour of encapsulated terpene in pellet, SAF Mannan 500 μl, terpene emulsion vol 37.5.
[26] abbreviates: colour of encapsulated terpene in pellet, SAF Mannan 500 μl, terpene emulsion vol 75.
Setting [27] is: colour of encapsulated terpene in pellet, SAF Mannan 500 μl, terpene emulsion vol 112.5.
Setting [28] is: colour of encapsulated terpene in pellet, SAF Mannan 500 μl, terpene emulsion vol 150.
[29] abbreviates: colour of encapsulated terpene in pellet, SAF Mannan 500 μl, terpene emulsion vol 225.
The mark [30] stands for this setting: colour of encapsulated terpene in pellet, SAF Mannan 500 μl, terpene emulsion vol 450.

The text below walks through data of patent US10729130B2, “Nematicidal compositions and methods of using them” (Eden Research plc, priority 2004, dated 2020).

As to `C=CCc1ccc(O)c(OC)c1` [Eugenol], the “Free Terpene” value in data set [1] (setting [5]) is given as “−”; in data set [1] (setting [6]) it was “−”; in data set [1] (setting [7]), “−”; in data set [1] (setting [8]) it was “+”; in data set [1] (setting [9]) it was “+”; in data set [1] (setting [10]), “+”. Also, the “Free Terpene” value in data set [2] (setting [11]) is given as “−”; in data set [2] (setting [12]), “−”; in data set [2] (setting [13]) it was “−”; in data set [2] (setting [14]) it was “+”; in data set [2] (setting [15]), “+”; in data set [2] (setting [16]) it was “+”. Besides, the “Vol. loaded (maximal terpene loading in SAF Mannan)” value in data set [1] is 112.5 µL. The “% Loaded w/w (maximal terpene loading in SAF Mannan)” value in data set [1] is reported as 100% w/w. The “Vol. Loaded μl” value in data set [2] worked out at 75 µL. In data set [2], the “% Loaded w/w” value is recorded as 67% w/w. Besides, the Colour entry in data set [3] (setting [17]), in data set [3] (setting [18]), in data set [3] (setting [19]), in data set [3] (setting [20]), in data set [3] (setting [21]) and in data set [3] (setting [22]) was “W” in each case. In addition, the Colour result in data set [3] (setting [23]), in data set [3] (setting [24]), in data set [3] (setting [25]), in data set [3] (setting [26]), in data set [3] (setting [27]) and in data set [3] (setting [28]) was “W” in each case. Also, the Colour result in data set [3] (setting [29]) and in data set [3] (setting [30]) was “W” in each case.
Consider `C=C(C)C1CC=C(C)C(=O)C1` (stereo not shown) [Carvone], for which the “Solution Level” value in data set [4] came out at 500 ppm.
Regarding `CC(=O)/C=C/C1=C(C)CCCC1(C)C` [b-ionone], the “Solution Level” value in data set [4] is 500 ppm.
Take `CC(C)=CCC/C(C)=C/CO` [Geraniol]: the “Free Terpene” value is on record as “−” in data set [1] (setting [5]); “−” in data set [1] (setting [6]); “−” in data set [1] (setting [7]); “−” in data set [1] (terpene emulsion vol 112.5, 1% Tween-80 387.5 μl); “−” in data set [1] (setting [8]); “−” in data set [1] (setting [9]). Also, the “Free Terpene” value in data set [1] (setting [10]) is “+”; in data set [2] (setting [11]), “−”; in data set [2] (setting [12]), “−”; in data set [2] (setting [13]), “−”; in data set [2] (emulsion 112.5 μl, 1% Tween-80 387.5 μl) it was “+”; in data set [2] (setting [14]), “+”. For the same compound, the “Free Terpene” value in data set [2] (setting [15]) and in data set [2] (setting [16]) was “+” in each case. For the same compound, the “Free Terpene: phase inversion remark” value in data set [1] (terpene emulsion vol 225) and in data set [1] (terpene emulsion vol 450) was “Inverted” throughout. The “Vol. loaded (maximal terpene loading in SAF Mannan)” value in data set [1] is 150 µL. The “% Loaded w/w (maximal terpene loading in SAF Mannan)” value in data set [1] turned out to be 133% w/w. The “Vol. Loaded μl” value in data set [2] stood at 75 µL. In data set [2], the “% Loaded w/w” value is reported as 67% w/w. Also, the Colour entry in data set [3] (setting [17]), in data set [3] (setting [18]), in data set [3] (setting [19]), in data set [3] (setting [20]), in data set [3] (setting [21]) and in data set [3] (setting [22]) was “W” throughout. Moreover, the Colour entry in data set [3] (setting [23]), in data set [3] (setting [24]), in data set [3] (setting [25]), in data set [3] (setting [26]), in data set [3] (setting [27]) and in data set [3] (setting [28]) was “W” in each case. Besides, the Colour entry in data set [3] (setting [29]) and in data set [3] (setting [30]) was “W” throughout. Besides, in data set [4], the “Solution Level” value is 500 ppm.
As to `CC(C)=CCCC(C)=CC=O` [Citral (98% pure), citral], the average percentage dead came to 23% in the data set with root-knot nematodes (125 ppm in 1% Tween 80, 21 h); 22% in the data set on root-knot nematodes (125 ppm in 1% Tween 80, 42 h); 87% in the data set with root-knot nematodes (250 ppm in 1% Tween 80, 21 h); 87% with root-knot nematodes (250 ppm in 1% Tween 80, 42 h).
On to Terpeniol, for which, in data set [4], the “Solution Level” value is given as 500 ppm.
In the case of `CC(C)=CCCC(C)=CC=O` [Citral (80% pure), citral], the average percentage dead was found to be 29% in the data set with root-knot nematodes (125 ppm in 1% Tween 80, 21 h); 27% in the data set with root-knot nematodes (125 ppm in 1% Tween 80, 42 h); 89% in the data set on root-knot nematodes (250 ppm in 1% Tween 80, 21 h); 96% with root-knot nematodes (250 ppm in 1% Tween 80, 42 h).
